We go through 10 molecules from patent US8288367B2, “Substituted estratriene derivatives as 17BETA HSD inhibitors” (Solvay Pharmaceuticals GmBH, priority 2006, dated 2012).

For one assay, the target named is T1, 17β-HSD3 enzyme (Homo sapiens, UniProt P37058).
T1 construct: expressed in transfected cells; host or cells: MCF-7 cell lines stably expressing 17β-HSD3
T1 sequence (P37058 1-310): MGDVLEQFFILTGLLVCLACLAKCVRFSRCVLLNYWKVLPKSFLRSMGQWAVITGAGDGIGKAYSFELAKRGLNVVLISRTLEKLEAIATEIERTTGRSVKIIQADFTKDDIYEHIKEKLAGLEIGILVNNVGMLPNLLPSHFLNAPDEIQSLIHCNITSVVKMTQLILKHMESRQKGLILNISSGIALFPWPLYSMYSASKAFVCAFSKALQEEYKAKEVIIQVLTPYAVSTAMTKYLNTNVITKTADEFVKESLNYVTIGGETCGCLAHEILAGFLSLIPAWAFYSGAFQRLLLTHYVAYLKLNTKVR
In words: Inhibition of 17β-HSD type 3 enzyme in MCF-7 cells stably expressing 17β-HSD3 (HPLC). The format is cell-based. Particulars: MCF7, MCF-7 cells expressing 17β-HSD3, 2 nM androstenedione; for inhibition at 1 µM: 1 μM compound; for inhibition at 10 µM: 10 μM compound. How it is done:
The compounds were screened in respect of 17β-HSD3 enzyme activity in vitro on established MCF-7 cell lines, each stably expressing the 17β-HSD3 enzyme. The interconversion of substrate by 17β-HSD3 and the 17β-HSD3 inhibiting activity of chemical compounds in these cell lines were detected by HPLC system.
Varying amounts of the test compounds were incubated in the growth medium of the 17β-HSD3 expressing cells together tritium labeled androstenedione (2 nM). The medium samples were removed after exact incubation time and the reaction is stopped by trichloroacetic acid (TCA). The samples were analyzed by HPLC-coupled flow scintillation analysis.
Conversion: The 17β-HSD3 inhibiting activity of an individual test compound was calculated by comparing the conversion of a control sample without any test compound (referred to as “Negative Control”) to the (reduced) conversion of the test sample containing the particular compound to be tested (referred to as “Test Sample”).

Assay [1] has as its target T2, recombinant human 17β-HSD2 (Homo sapiens, UniProt P37059).
T2 construct: made in house; host or cells: Sf9 insect cells (baculovirus, Bac to Bac Expression System)
T2 sequence (P37059 1-387): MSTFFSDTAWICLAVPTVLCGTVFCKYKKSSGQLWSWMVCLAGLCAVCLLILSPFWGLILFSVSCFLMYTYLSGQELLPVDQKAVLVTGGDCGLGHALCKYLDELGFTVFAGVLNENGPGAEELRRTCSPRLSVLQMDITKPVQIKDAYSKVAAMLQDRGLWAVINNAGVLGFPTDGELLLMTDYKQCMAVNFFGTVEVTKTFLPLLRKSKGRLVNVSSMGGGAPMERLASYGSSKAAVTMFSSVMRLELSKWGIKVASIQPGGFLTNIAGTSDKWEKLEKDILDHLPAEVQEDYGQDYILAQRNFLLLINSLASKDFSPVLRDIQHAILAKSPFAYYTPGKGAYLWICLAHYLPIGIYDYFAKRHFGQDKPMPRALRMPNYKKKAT
In words: Recombinant 17β-HSD2 assay (HPLC, 3H-estradiol conversion). Conditions: 50 nM estradiol, 1 mM β-NAD, read-out: Inhibition of rec. 17β-HSD2; for inhibition at 0.1 µM: 100 nM compound; for inhibition at 1 µM: 1 μm compound. It counts as biochemical. How it is done:
17β-HSD1 or 17β-HSD2 purification: Recombinant 17β-HSD1 and 17β-HSD2 baculoviruses were generated by the “Bac to Bac Expression System” (Invitrogen). Recombinant 17β-HSD1 or 17β-HSD2 bacmids were transfected to Sf9 insect cells using “Cellfectin Reagent” (Invitrogen). 60 h later cells were harvested; the fractions including 17β-HSD1 or 17β-HSD2 were isolated as described by Puranen et al. (1994). Aliquots were stored frozen until determination of enzymatic activity. Recombinant 17β-HSD2 assay: Recombinant 17β-HSD2 assay was performed as described for 17β-HSD1 but with following modifications: 6 μg/ml of recombinant protein homogenate, 50 nM Estradiol (Sigma, E8875) as a substrate, 800 000 cpm/ml ^3H-estradiol (PerkinElmer, NET317) as a tracer substrate and 1 mM β-NAD (Sigma N7004) as a co-factor were used. Total radioactivity for estrone and estradiol were determined in each sample and percent inhibition of estrone conversion by the respective inhibitor was calculated. For the calculation of % inhibition the following formula was used: [formula] Percent inhibition was calculated as follows: % inhibition=100−% conversion

The target in assay [2] is T3, recombinant human 17β-HSD1 (Homo sapiens, UniProt P14061).
T3 construct: made in house; host or cells: Sf9 insect cells (baculovirus, Bac to Bac Expression System)
T3 sequence (P14061 1-328): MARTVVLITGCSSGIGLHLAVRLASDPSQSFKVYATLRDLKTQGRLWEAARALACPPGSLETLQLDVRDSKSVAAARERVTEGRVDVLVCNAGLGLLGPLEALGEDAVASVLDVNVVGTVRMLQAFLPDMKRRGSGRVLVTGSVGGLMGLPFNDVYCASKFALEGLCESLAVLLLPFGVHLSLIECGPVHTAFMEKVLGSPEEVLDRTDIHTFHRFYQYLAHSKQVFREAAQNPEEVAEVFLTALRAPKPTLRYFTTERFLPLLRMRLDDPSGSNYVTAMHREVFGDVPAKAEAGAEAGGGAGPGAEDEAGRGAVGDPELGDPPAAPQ
Description: Recombinant 17β-HSD1 assay (HPLC, 3H-estrone conversion). The format is biochemical. Conditions: 30 nM estrone, 1 mM NADPH, 30 min RT, read-out: Inhibition of rec. 17β-HSD1; for inhibition at 0.1 µM: 100 nM compound; for inhibition at 1 µM: 0.5 h, 1 μm compound. How it is done: 17β-HSD1 or 17β-HSD2 purification: Recombinant 17β-HSD1 and 17β-HSD2 baculoviruses were generated by the “Bac to Bac Expression System” (Invitrogen). Recombinant 17β-HSD1 or 17β-HSD2 bacmids were transfected to Sf9 insect cells using “Cellfectin Reagent” (Invitrogen). 60 h later cells were harvested; the fractions including 17β-HSD1 or 17β-HSD2 were isolated as described by Puranen et al. (1994). Aliquots were stored frozen until determination of enzymatic activity.
Recombinant 17β-HSD1 assay: Recombinant protein homogenate (0.1 μg/ml) was incubated in 20 mM KH2PO4 pH 7.4 reaction buffer, including protease inhibitors (Complete Protease Inhibitor Cocktail tablet, Roche Diagnostics, 1697498), with 30 nM estrone (Sigma, E9750) as substrate, 800 000 cpm/ml ^3H-estrone (PerkinElmer, NET319001MC) as a tracer substrate, and 1 mM NADPH (Sigma, N1630) as a co-factor for 30 min at RT, in the presence of potential inhibitors at concentrations of 1 μM or 0.1 μM. Inhibitor stock solutions were prepared in DMSO. The enzyme reaction was stopped by addition of trichloroacetic acid (1% final concentration). Samples were centrifuged in a microtiter plate at 4000 rpm for 10 min. Supernatants were applied to reverse phase HPLC on a Waters Symmetry C18 column, equipped with a Waters Sentry Guard column. Isocratic HPLC runs were performed at RT at a flow rate of 1 ml/min of acetonitrile:water 48:52 as running solvent. Radioactivity was monitored in the eluate by a Packard Flow Scintillation Analyzer. Total radioactivity for estrone and estradiol were determined in each sample and percent inhibition of estradiol conversion by the respective inhibitor was calculated
For the calculation of % inhibition the following formula was used:
[formula] Percent inhibition was calculated as follows: % inhibition=100−% conversion

Turning to `Cc1cnc(NC(=O)CC[C@@H]2CC(F)(F)[C@@]3(C)CC[C@@H]4c5ccc(C(N)=O)cc5CC[C@H]4[C@H]23)s1` [Compound 8, 17,17-difluoro-15beta-{3-[(5-methyl-1,3-thiazol-2-yl)amino]-3-oxopropyl}estra-1(10),2,4-triene-3-carboxamide], on 17β-HSD3 enzyme, the inhibition (in general, the drop in the measured response relative to a control, in per cent) at 1 µM turned out to be 4% and the inhibition at 10 µM is 46%.
Regarding `C[C@]12CC[C@@H]3c4ccc(B(O)O)cc4CC[C@H]3[C@@H]1[C@@H](CCCC(=O)Nc1ccc3c(c1)OCO3)CC2=O` [Compound 13, [15alpha-[4-(1,3-benzodioxol-5-ylamino)-4-oxobutyl]-17-oxoestra-1(10),2,4-trien-3-yl]boronic acid], the inhibition at 1 µM against 17β-HSD3 enzyme turned out to be 18%; in assay [1], 2%; in assay [2] it was 52%. Also, on 17β-HSD3 enzyme, the inhibition at 10 µM turned out to be 22%. In addition, the inhibition at 0.1 µM in assay [1] was -7.6%; in assay [2], 27%.
Take `C[C@]12CC[C@@H]3c4ccc(B(O)O)cc4CC[C@H]3[C@@H]1[C@@H](CCCC(=O)NC1CCCCC1)CC2=O` [Compound 17, [15alpha-[4-(cyclohexylamino)-4-oxobutyl]-17-oxoestra-1(10),2,4-trien-3-yl]boronic acid]: the inhibition at 1 µM was determined as 6% at 17β-HSD3 enzyme, 1.8% in assay [1] and 31% in assay [2]. In addition, at 17β-HSD3 enzyme, the inhibition at 10 µM came to 45%. In addition, the inhibition at 0.1 µM is -5.4% in assay [1] and 24% in assay [2].
On to `C[C@]12CC[C@@H]3c4ccc(B(O)O)cc4CC[C@H]3[C@@H]1[C@@H](CCCC(=O)N1CCCCC1)CC2=O` [Compound 20, [17-oxo-15alpha-(4-oxo-4-piperidin-1-ylbutyl)estra-1(10),2,4-trien-3-yl]boronic acid], for which, on 17β-HSD3 enzyme, the inhibition at 1 µM worked out at 15% and the inhibition at 10 µM is 57%.
Consider `C[C@]12CC[C@@H]3c4ccc(B(O)O)cc4CC[C@H]3[C@@H]1[C@@H](CCCC(=O)NC1CCCCC1)CC2(F)F` [Compound 48, [15alpha-[4-(cyclohexylamino)-4-oxobutyl]-17,17-difluoroestra-1(10),2,4-trien-3-yl]boronic acid], for which, on 17β-HSD3 enzyme, the inhibition at 1 µM turned out to be 13% and the inhibition at 10 µM is 63%. Besides, in assay [1], the inhibition at 0.1 µM worked out at 6.4% and the inhibition at 1 µM was 12.8%. For the same molecule, in assay [2], the inhibition at 0.1 µM turned out to be 25% and the inhibition at 1 µM was 50%.
`CCN(CC)C(=O)CCC[C@H]1CC(F)(F)[C@@]2(C)CC[C@@H]3c4ccc(B(O)O)cc4CC[C@H]3[C@H]12` [Compound 49, [15alpha-[4-(diethylamino)-4-oxobutyl]-17,17-difluoroestra-1(10),2,4-trien-3-yl]boronic acid]: on 17β-HSD3 enzyme, the inhibition at 1 µM came out at 62% and the inhibition at 10 µM was 89%. Further, in assay [1], the inhibition at 0.1 µM is 7.7% and the inhibition at 1 µM stood at 11.6%. Moreover, in assay [2], the inhibition at 0.1 µM turned out to be 29% and the inhibition at 1 µM is 50%.
Turning to `C[C@]12CC[C@@H]3c4ccc(B(O)O)cc4CC[C@H]3[C@@H]1[C@@H](CCCC(=O)NCc1cccnc1)CC2(F)F` [Compound 53, [17,17-difluoro-15alpha-{4-oxo-4-[(pyridin-3-ylmethyl)amino]butyl}estra-1(10),2,4-trien-3-yl]boronic acid], at 17β-HSD3 enzyme, the inhibition at 1 µM is 4% and the inhibition at 10 µM was determined as 50%. Further, in assay [1], the inhibition at 0.1 µM was determined as 5% and the inhibition at 1 µM amounted to 8.6%. For the same molecule, in assay [2], the inhibition at 0.1 µM was 19% and the inhibition at 1 µM was 50%.
Take `C[C@]12CC[C@@H]3c4ccc(B(O)O)cc4CC[C@H]3[C@@H]1[C@@H](CCCC(=O)N1CCCCC1)CC2(F)F` [Compound 57, [17,17-difluoro-15alpha-(4-oxo-4-piperidin-1-ylbutyl)estra-1(10),2,4-trien-3-yl]boronic acid]: on 17β-HSD3 enzyme, the inhibition at 1 µM amounted to 28% and the inhibition at 10 µM came to 78%.
For `C[C@]12CC[C@@H]3c4ccc(B(O)O)cc4CC[C@H]3[C@@H]1[C@H](CCC(=O)NCc1ccc3c(c1)OCO3)CC2(F)F` [Compound 60, [15beta-{3-[(1,3-benzodioxol-5-ylmethyl)amino]-3-oxopropyl}-17,17-difluoroestra-1(10),2,4-trien-3-yl]boronic acid], on 17β-HSD3 enzyme, the inhibition at 1 µM turned out to be 28% and the inhibition at 10 µM came to 67%. Besides, in assay [1], the inhibition at 0.1 µM came to 9.5% and the inhibition at 1 µM came to 12.5%. Moreover, in assay [2], the inhibition at 0.1 µM is 46% and the inhibition at 1 µM was determined as 71%.
With `C[C@]12CC[C@@H]3c4ccc(NCc5ccccc5)cc4CC[C@H]3[C@@H]1[C@@H](CCCC(=O)N1CCOCC1)CC2=O` [Compound 98, 3-(benzylamino)-15alpha-(4-morpholin-4-yl-4-oxobutyl)estra-1(10),2,4-trien-17-one], on 17β-HSD3 enzyme, the inhibition at 1 µM amounted to 15% and the inhibition at 10 µM was 48%.
